Results reported in US20250115571A1, “OXOPIPERAZINE DERIVATIVES” (Inthera Bioscience AG, priority 2017, published 2025).

Assays:
CaSki = test: 9-day colony survival assay (CFA); assay type: cell-based; conditions: Homo sapiens, Ca-Ski, 216 h, CaSki (cervix), read-out: GI50 (50% growth inhibition)
Excerpt: Cell culture. CaSki cells (cervical cancer) were obtained from CLS GmbH, Eppelheim, Germany (cat #300145) and subcultured in ready-to-use RPMI1640 Media (CLS #820700) after addition of “Antibiotic Antimycotic Solution” (Sigma-Aldrich, St Louis, USA) at 1:100 dilution. The cells were expanded, and aliquots kept frozen in liquid nitrogen according to manufacturer's instructions; tested for mycoplasma contamination and genotyped (Microsynth AG, Balgach, Switzerland). Once thawed, aliquots were passaged every second or third day at a seed density of 20′000 cells/cm^2; and used for a maximum of twenty passages. For passaging, cell culture flasks were rinsed twice with Ca++/Mg++-free Phosphate-Buffered Saline (DPBS, CLS #860015) and incubated with Accutase (CLS #830100) for 15 min at 37° C. Cells were resuspended in a four-fold volume of ready-to-use RPMI, centrifuged at 300 g for ten minutes, the supernatant discarded and the cells resuspended in ready-to-use RPMI1640 by pipetting up and down five times with a serological pipette. Cell density was determined with a Via-1 Cassette (Chemometec, Allerod, Denmark) on a Nucleocounter NC 3000 (Chemometec). Where not stated, consumables and chemicals were purchased from well-known suppliers.
Preparation of the cells for CFA. Cell culture flasks were rinsed twice with DPBS and incubated with Accutase for 15 min at 37° C. Cells were resuspended in a four-fold volume of ready-to use RPMI, centrifuged at 300 g for ten minutes, the supernatant discarded and the cells resuspended in ready-to-use RPMI1640 by pipetting up and down ten times with a serological pipette. Cell density was determined with a Via-1 Cassette on a Nucleocounter NC 3000. The required amount of cells was first diluted 1:10 in ready-to-use RPMI; cells pipetted five times up-down with a serological pipette; and the 1:10 solution added to the final volume needed for the whole assay setup. Cells were mixed again by pipetting up and down twenty times with a serological pipette. The cell density used for the experiment was of 140 cells/ml.
Seeding. Cells were seeded row-wise in 12-well plates, while triplicates were treated column-wise (i.e. all the first rows were seeded first, then the second rows, and finally the third rows). One and a half ml cell suspension solution (a total of 210 cells) were added per well.
Treatment. Compound stock solutions were prepared at a concentration of 30 mM in 50% DMSO/50% water; and diluted in the same solution so that the volume added to the wells was of 2.5 μl and the final DMSO well concentration of 0.08%. Untreated cells (negative controls) were incubated in a) medium only; and b) 0.08% DMSO. […] The plates were swirled gently after addition of the compounds and the cells incubated for nine days at 37° C. Culture incubation solutions were replaced after five days.
Staining. Colonies were washed twice with ice-cold DPBS and fixed on ice with 1 ml ice-cold 10% methanol solution for 30 min. The methanol solution was removed and colonies incubated with 0.1% Crystal Violet/DBPS for 20 min at room temperature. The wells were rinsed consecutively with 1.5, 1, and 0.5 ml water at room temperature and let dry.
Destaining and data evaluation. […] Absorbance was measured at 600 nm with a SpectraMax M2e reader (Molecular Devices, Sunnyvale, CA, USA). Percentage of colony formation was calculated from the average of the well triplicates compared to the untreated DMSO controls after subtraction of blank values. […]

[1] = tested on: HCT116 human colon cancer cells; test: Cell-derived xenograft mouse model for colorectal cancer (HCT116 CDX); assay type: in vivo; conditions: for T/C (tumor-to-control ratio, volume/volume): day 37
Experimental: Female BALB/c nude mice (8-9 weeks of age) were injected with HCT116 human colon cancer cells. The cells were inoculated subcutaneously into the left flank of 48 mice. When tumors reached a mean volume of approximately 100 mm^3, mice were randomly assigned to eight treatment groups of each six mice (TABLE 14). Body weights were measured three times weekly prior to the initiation of dosing and daily thereafter. Tumor burden was assessed by caliper measurement twice weekly. Dosing breaks were applied when tolerability issues arose (body weight loss>10%). The study was terminated four weeks post first dosing. The experiment was performed in the Crown Bioscience Ltd. (Beijing) testing facility (Ground Floor, Light Muller Building, Changping Sector of Zhongguancun Scientific Park, No. 21 Huoju Road, Changping District, Beijing, CHN).

PC3 = test: 9-day colony survival assay (CFA); assay type: cell-based; conditions: Homo sapiens, PC-3, 216 h, PC3 (prostate), read-out: GI50 (50% growth inhibition)
[2] = tested on: hormone-refractory DU-145 human prostate cancer cells; test: Cell-derived xenograft mouse model for prostate cancer (DU-145 CDX); assay type: in vivo; conditions: p.o. QD × 4 weeks; for T/C (tumor-to-control ratio, volume/volume): day 35
Experimental: Male BALB/c nude mice (7-9 weeks of age) were injected with hormone-refractory DU-145 human prostate cancer cells. The cells were inoculated subcutaneously into the left flank of 48 mice. When tumors reached a mean volume of approximately 105 mm^3, mice were randomly assigned to eight treatment groups of each six mice (TABLE 12). Body weights were measured three times weekly prior to the initiation of dosing and daily thereafter. Tumor burden was assessed by caliper measurement three times weekly. Dosing breaks were applied when tolerability issues arose (body weight loss>10%). The study was terminated 4 weeks post first dosing. The experiment was performed in the Crown Bioscience Ltd. (Beijing) testing facility (Ground Floor, Light Muller Building, Changping Sector of Zhongguancun Scientific Park, No. 21 Huoju Road, Changping District, Beijing, CHIN).

HCT116 = test: 9-day colony survival assay (CFA); assay type: cell-based; conditions: Homo sapiens, HCT-116, 216 h, HCT116 (colon), read-out: GI50 (50% growth inhibition)
A549 = test: 9-day colony survival assay (CFA); assay type: cell-based; conditions: Homo sapiens, 216 h, A549 (lung), read-out: GI50 (50% growth inhibition)

Row | Compound | GI50 (CaSki) | Tumor Size day 37 (Mean ± SEM) ([1]; 3 mg/kg, p.o. QD) | p vs. Group-2 (Avastin, 10 mg/kg, BIW) ([1]; 3 mg/kg, p.o. QD) | T/C (tumor-to-control ratio, volume/volume) ([1]; 3 mg/kg, p.o. QD) | Tumor Size day 37 (Mean ± SEM) ([1]; 6 mg/kg, p.o. QD) | p vs. Group-2 (Avastin, 10 mg/kg, BIW) ([1]; 6 mg/kg, p.o. QD) | T/C (tumor-to-control ratio, volume/volume) ([1]; 6 mg/kg, p.o. QD) | GI50 (PC3) | Tumor Size day 35 (Mean ± SEM) ([2]; 3 mg/kg) | T/C (tumor-to-control ratio, volume/volume) ([2]; 3 mg/kg) | GI50 (HCT116) | GI50 (A549) | other results
1 | CC(C)C[C@@H]1NCCN([C@@H](CC(C)C)C(=O)N2CCC3(C[C@@H]2C)OCC(CN2CCCC2)CO3)C1=O (stereo partly drawn) [Compound 258, (3S)-1-[(2S)-4-methyl-1-oxo-1-[(3s,6s,8S)-8-methyl-3-(pyrrolidin-1-ylmethyl)-1,5-dioxa-9-azaspiro[5.5]undec-an-9-yl]pentan-2-yl]-3-(2-methylpropyl)piper-azin-2-one (^≠), isomer Z] | 2 nM | 436.2 ± 58.9 mm^3 | Group-2 vs. Group-5, p = 0.028; | 36.7% | 253.2 ± 39.2 mm^3 | Group-2 vs. Group-4, p = 0.001; | 21.3% | 3 nM | 105 ± 25 mm^3 | 15.2% | 1.5 nM | 5 nM | Tumor Size day 37 (Mean ± SEM) ([1]; 20 mg/kg, p.o. BIW): 696.8 ± 93.7 mm^3; p vs. Group-2 (Avastin, 10 mg/kg, BIW) ([1]; 20 mg/kg, p.o. BIW): Group-2 vs. Group-3, p = 0.865;; T/C (tumor-to-control ratio, volume/volume) ([1]; 20 mg/kg, p.o. BIW): 58.7%; Tumor Size day 35 (Mean ± SEM) ([2]; 1 mg/kg): 378 ± 27 mm^3; T/C (tumor-to-control ratio, volume/volume) ([2]; 1 mg/kg): 54.5%; Tumor Size day 35 (Mean ± SEM) ([2]; 6 mg/kg): 32 ± 2 mm^3; T/C (tumor-to-control ratio, volume/volume) ([2]; 6 mg/kg): 4.6%; Tumor Size day 35 (Mean ± SEM) ([2]; 10 mg/kg): 47 ± 4 mm^3; T/C (tumor-to-control ratio, volume/volume) ([2]; 10 mg/kg): 6.8%
2 | CC(C)C[C@@H]1NCCN([C@@H](CC(C)C)C(=O)N2CCC3(C[C@@H]2C)OCC(CN2CCC2)CO3)C1=O (stereo partly drawn) [Compound 284, (3S)-1-[(2S)-4-methyl-1-oxo-1-[(3s,6s,8S)-3-(azetidin-1-ylmethyl)-8-methyl-1,5-dioxa-9-azaspiro[5.5]undec-an-9-yl]pentan-2-yl]-3-(2-methylpropyl)piper-azin-2-one (^≠), isomer Z] | 6 nM | 827.4 ± 125.7 mm^3 | Group-2 vs. Group-8, p = 0.509; | 69.7% | 942.0 ± 114.9 mm^3 | Group-2 vs. Group-7, p = 0.165; | 79.3% | 3 nM | 347 ± 48 mm^3 | 50.1% | 1.5 nM | 10 nM | –
3 | CC(C)C[C@@H]1NCCN([C@@H](CC(C)C)C(=O)N2CCC3(C[C@@H]2C)OCC(CN2CCC4(CC2)CC4)CO3)C1=O (stereo partly drawn) [Compound 279, (3S)-1-[(2S)-4-methyl-1-oxo-1-[(3s,6s,8S)-3-{6-azaspiro[2.5]octan-6-ylmethyl}-8-methyl-1,5-dioxa-9-azaspiro[5.5]undec-an-9-yl]pentan-2-yl]-3-(2-methylpropyl)piper-azin-2-one (^≠), isomer Z] | 4 nM | – | – | – | 1064.0 ± 141.1 mm^3 | Group-2 vs. Group-6, p = 0.070; | 89.6% | 1.5 nM | 516 ± 59 mm^3 | 74.5% | 1 nM | 5 nM | –
